One data set relates to serotonin 2. Briefly: Chemical bond studies: interference with serotonin 2 receptor (% inhibition). It counts as binding. The note with it: table 2.
A further data set in a line: DL50. The format is in vivo. More on the design: unit not given beside the values. The note with it: species, route and unit not given.
In a further data set the test system is alpha 1. The data set is described as follows: Chemical bond studies: interference with alpha 1 receptor (% inhibition). It counts as binding. The note with it: table 2.
For data set [1] the following is noted: attributed to action on adrenergic receptors (alpha 1 and alpha 2); cited from earlier work.
For data set [2] the following is noted: Burger's Medicinal Chemistry, 4th ed. (1981); cited from earlier work.

Regarding `CC(CCn1nc2ccccn2c1=O)N1CCN(c2cccc(Cl)c2)CC1` (centres unmarked) [(I) R = R" = R"' = H; R' = CH3, 2-[3-[4-(3-chlorophenyl)-1-piperazinyl]-3-methylpropyl]-1,2,4-triazole-[4,3-a]-pyridin-3(2H)-one], the “serotonine 2 (% inhibition)” value in the data set with serotonin 2 (C = 10^-5 M) was found to be 100%; in the data set with serotonin 2 (C = 10^-7 M), 59%. Also, the DL50 in “DL50” is reported as at most 300. Moreover, the entries for the “alpha 1 (% inhibition)” value in the data set on alpha 1 (C = 10^-5 M) and with alpha 1 (C = 10^-7 M) were 91% and 26%, respectively.

As for `O=c1n(CCCN2CCN(c3cccc(Cl)c3)CC2)nc2ccccn12` [trazodone], the sporadic side effects entry in data set [1] is “hypotension and priapism”. Further, the clinical actions entry in data set [2] is recorded as “diazepine-like clinical actions”. The DL50 in the data set “DL50” is on record as at least 200.

Take `CC(CN1CCN(c2cccc(Cl)c2)CC1)Cn1nc2ccccn2c1=O` (centres unmarked) [(I) R' = R" = R"' = H; R = CH3, 2-[3-[4-(3-chlorophenyl)-1-piperazine]-2-methylpropyl]-1,2,4-triazole[4,3-a]-pyridin-3-(2H)-one]: the “serotonine 2 (% inhibition)” value was found to be 100% in the data set with serotonin 2 (C = 10^-5 M) and 62% in the data set on serotonin 2 (C = 10^-7 M). In “DL50”, the DL50 is at most 600. The “alpha 1 (% inhibition)” value turned out to be 88% in the data set with alpha 1 (C = 10^-5 M) and 27% in the data set on alpha 1 (C = 10^-7 M).

For `CC1CN(c2cccc(Cl)c2)CCN1CCCn1nc2ccccn2c1=O` (centres unmarked) [(I) R = R' = R"' = H; R" = CH3, 2-[3-[4-(3-chlorophenyl)-1-(2-methyl)-piperazinyl]-propyl]-1,2,4-triazole-[4,3-a]-pyridin-3(2H)-one], the figures for the “serotonine 2 (% inhibition)” value in the data set on serotonin 2 (C = 10^-5 M) and in the data set on serotonin 2 (C = 10^-7 M) were 100% and 69%, respectively. Also, the DL50 in the data set “DL50” is given as 300. Besides, the results for the “alpha 1 (% inhibition)” value in the data set on alpha 1 (C = 10^-5 M) and in the data set on alpha 1 (C = 10^-7 M) were 96% and 37%, respectively.

As to `CC1CN(CCCn2nc3ccccn3c2=O)CCN1c1cccc(Cl)c1` (centres unmarked) [(I) R = R' = R" = H; R"' = CH3, 2-[3-[4-(3-chlorophenyl)-1-(3-methyl)-piperazinyl]-propyl]-1,2,4-triazole-[4,3-a]-pyridin-3(2H)-one], the “serotonine 2 (% inhibition)” value with serotonin 2 (C = 10^-5 M) is 98%; in the data set with serotonin 2 (C = 10^-7 M), 68%. This molecule also displayed a DL50 in the data set “DL50” of at most 600. Also, the “alpha 1 (% inhibition)” value in the data set with alpha 1 (C = 10^-5 M) came to 85%; in the data set with alpha 1 (C = 10^-7 M) it was 20%.

Source of the values: patent publication US5739334A (Istituto Ricerca Francesco Angelini S.p.A., priority 1992, dated 1998).
